Reference: patent US5648376A, “Immunosuppressant diterpene compound” (Pharmagenesis, Inc., priority 1995, dated 1997)

Tests used:
[1] = system: IL-1 action on mouse thymocytes; assay: Inhibition of IL-1 action on mouse thymocytes (proliferation, [3H] thymidine incorporation); format: cell-based; conditions: at about 0.2 μg/ml; rIL-1β 0.08 ng/ml plus PHA 10 μg/ml; 72 hours; range 0.012 to 0.76 μg/ml
Experimental: The ability of subglutinol to suppress the cell-proliferative effect of IL-1 in mouse thymocytes as an index of IL-1 action (O'Gara, 1990) was also examined. In this study, mouse thymocytes in culture were stimulated with IL-1 in the presence of phytohemagglutinin and increasing concentrations of subglutinol. The cells were cultured for 72 hours, and during the last four hours, incubated with tritiated thymidine. […] Details are given in Example 6.
Mouse thymocytes were prepared, and the action of IL-1, which stimulates thymocyte proliferation, was measured using standard techniques (O'Gara, 1990). Three to six week old C3H/HeN male mice (Simonson Laboratory, Gilroy, Calif.) were sacrificed by CO2 inhalation. Thymi were removed, separated from adherent non-thymic tissue, homogenized in Hank's balanced salt solution (HBSS, Gibco) using a glass homogenizer, and centrifuged at 200×g for 10 minutes at 15° C. Following an additional wash in HBSS, the thymocytes were resuspended in RPMI 1640 medium (Gibco) containing 50 μM 2-mercaptoethanol, 2 mM glutamine, 1 mM sodium pyruvate, non-essential amino acids 100 U/ml penicillin, 100 μg/ml streptomycin and 10% heat-inactivated fetal bovine serum. […]
Subglutinol was added, 25 μl per well, to obtain final concentrations of subglutinol between 0.001 and 0.78 μg/ml. […] Cells were harvested and counted as above. […]

[2] = system: human peripheral blood lymphocytes (PBLs); assay: Suppression of PBL proliferation in vitro (anti-CD3 X-35 stimulated, [3H] thymidine incorporation); format: cell-based; conditions: X-35 5 ng/ml; 72 hours; subglutinol between 1 and 20 μg/ml
Experimental: One measure of immunosuppression is suppression of stimulated proliferation of peripheral blood lymphocytes (PBLs) in vitro. In the assay detailed in Example 5, PBLs were activated in vitro by addition of anti-CD3 monoclonal antibody (X-35 antibody). Subglutinol or vehicle (control) was added to each culture, at selected concentrations. After 72 hours incubation, tritiated thymidine was added to the culture medium, and incorporation of tritium into DNA was assayed as a measure of DNA synthesis associated with cell proliferation.
This example examines the ability of subglutinol to suppress the proliferation of human peripheral blood lymphocytes (PBLs) when stimulated with X-35 (AMAC #0178), an anti-CD3 surface antigen antibody. Human PBLs were prepared using an established method (Boyum). Human blood buffy coat samples, approximately 25 ml/donor, were obtained from the Stanford University Medical Center Blood Bank. […] The cell pellets were suspended in 10 ml of X-Vivo tissue culture medium (BioWhittakar, Walkersville, Md) and counted using a hemocytometer. […]
Plates were incubated at 37° C. in a 7% CO2 incubator for 72 hours. […] Samples were counted in a liquid scintillation counter (1205 Betaplate, Pharmacia LKB Biotechnology). […]

[3] = Evaluation of potential toxicity (MTT assay); format: cell-based; conditions: human, pbls, 21 hours plus 3 hours MTT
Experimental: Potential toxicity of the mixture was assessed by measurement the effect of subglutinol on the ability of cultured cells to reduce MTT (3-[4,5-Dimethylthiazol-2-yl]-2,5-diphenyltetrazolium bromide), an index of cellular respiration that is more sensitive in the detection of cytotoxicity than methods involving measurement of DNA replication (Green, 1984).
Potential cytotoxicities of test samples were assessed by measuring the effect of subglutinol on the reduction of MTT (3-[4,5-Dimethylthiazole-2-yl]-2,5-diphenyl-tetrazolium bromide) by cultured cells. MTT, a yellow-colored compound, is reduced by mitochondrial enzymes to form a purple crystalline reduction product, formazane, providing an index of cellular respiration as well as a sensitive assay for cytotoxicity (Green, 1984).
Cytotoxicity was assessed in cultured human PBLs. A stock solution of MTT (Sigma, St. Louis, Mo.), 5 mg/ml phosphate buffered saline, pH 7.4, was prepared and stored in the dark at 4° C. PBLs were cultured with various concentrations of test samples in flat-bottom 96 well tissue culture plate (Costar #3595) using the same conditions as in Example 5 above, except that X-35 was replaced with the appropriate medium.
Untreated cells in medium alone were used as controls in each experiment. Following 21 hours of incubation of cells, 25 μl of MTT solution was added to each well. After an additional three hour incubation, the experiment was terminated by adding a solution of 10% sodium dodecyl sulfate in 0.01 N HCl.
Following overnight incubation at 37° C. (to solubilize the formazane crystals), optical density was determined at 570-650 nm in a microplate reader (Thermo max, Molecular Devices, Calif.). Data are expressed as % cytotoxicity. Subglutinol concentrations of 0.03, 0.1, and 0.3 μg/ml gave % cytotoxicity values of 0, 20, and 28%, respectively.

[4] = system: proliferation of lymphocytes in a mixed lymphocyte reaction; assay: Murine mixed lymphocyte reaction (MLR); format: cell-based, mouse; conditions: at 0.1 μg/ml; C57Bl/6 responder, irradiated Balb/C stimulator spleen cells; 4 days
Experimental: A measure of immunosuppression that serves as a model for transplantation rejection is inhibition of cell proliferation in a mixed lymphocyte reaction (MLR) assay (Bradley, in Mishell, 1980). In these experiments, an MLR is induced by co-incubating responder (R) cells from one mouse strain (C57B1/6) with stimulator (S) cells from another mouse strain (Balb/C).
The responder cells proliferate in the presence of the allogenic stimulator cells. The stimulator cells are irradiated so they are unable to proliferate. After 72 hours incubation, tritiated thymidine is added to the mixed cell cultures, and incorporation of the labeled nucleotide into DNA is assayed as an index of cell proliferation.
In the MLR test reported in Example 7, responder cells were co-cultured in microtitre wells with stimulator cells, in the presence of selected concentrations of subglutinol between 0.01 and 0.3 μg/ml. The wells receiving no subglutinol would be expected to be maximally stimulated. The cells were cultured for 4 days, and labeled with [^3 H] thymidine during the last 18 hours of incubation. […]
Several controls were conducted in the MLR assay. […] The spontaneous proliferation of R was also measured. […] Cells were harvested and counted as above. […]

C=C1CCC2C3(C)CC(C=C(C)C)OC3CCC2(C)C1Cc1c(O)c(C)c(C)oc1=O (stereo not drawn) [subglutinol]
inhibition of IL-1 action on thymocytes (FIG. 11) [1]: Nearly complete inhibition | percent suppression of proliferation of anti-CD3 stimulated PBLs (FIG. 10) [2]: dose-dependent suppression | cytotoxicity at 24 h ([3]; 0.03 μg/ml): 0% | cytotoxicity at 24 h ([3]; 0.1 μg/ml): 20% | cytotoxicity at 24 h ([3]; 0.3 μg/ml): 28% | percent inhibition of stimulation in MLR (FIG. 12) [4]: Nearly complete inhibition
